Assay results taken from patent US20230390279A1, “COMPOSITION AND METHOD FOR TREATING CANCER” (NOVMETAPHARMA CO., LTD., priority 2022, published 2023).

Columns and labels:
Format in all cases: cell-based
[1] = test system: A549 lung cancer cell line; assay: MTT cell viability assay, TKI combination; details: Homo sapiens, bosutinib 12.5 μM, 24 hours, read-out: growth inhibition
Method: (§1) To evaluate anticancer effects of ERRγ compound, alone and in combination with TKIs, various cancer cells including A549, Panc-1, Sk-Hep-1, Huh-7, and SK-Hep-1 cells were cultured in DMEM containing 10% FBS and 1% antibiotics.
(§2) To initiate the assay, cells were seeded in 96-well plates at a density of 1×10^4 cells per well and incubated overnight in a 37° C. […] To serve as a control, an equal volume of DMSO was added. After 24 hours of incubation, the media was replaced with media containing 0.5 mg/ml of MTT and the plates were incubated for 1 hour. Then, the medium was removed and formazan crystals were dissolved in 100 μl of DMSO added to each well. A microplate reader was used to measure the absorbance at 570 nm, and cell viability was normalized to control. Statistical significance was calculated using Student's t-test, with significance levels set at **p<0.01, ***p<0.001, and ****p<0.0001.

[2] = test system: Panc1 pancreatic cancer cells; assay: MTT cell viability assay, TKI combination; details: Homo sapiens, PANC-1, ceritinib 2.5 μM, 24 hours, read-out: growth inhibition
Method: as §1, §2

[3] = test system: Huh-7 liver cancer cells; assay: MTT cell viability assay, TKI combination; details: Homo sapiens, lenvatinib 1.3 μM, 24 hours, read-out: growth inhibition
Method: as §1, §2

[4] = test system: SK-Hep-1 liver cancer cells; assay: MTT cell viability assay, TKI combination; details: Homo sapiens, SK-HEP1, lenvatinib 15 μM, 24 hours, read-out: growth inhibition
Method: as §1, §2

[5] = test system: SKOV-3 ovarian cancer cells; assay: MTT cell viability assay, TKI combination; details: Homo sapiens, SK-OV-3, ruxolitinib 30 μM, 24 hours, read-out: growth inhibition
[6] = test system: sorafenib-resistant liver cancer cell line SK-Hep-R; assay: Cell proliferation, trypan blue cell count with hemocytometer; details: sorafenib alone, FIG. 4B
[7] = test system: sorafenib-resistant liver cancer cell line SK-Hep-R; assay: Cell death by FACS (annexin/PI) and cleaved caspase-3; details: SK-Hep-R cells; FIGS. 1A to 1C
Method: (§3) To evaluate the cancer cell death by FACS, first, a cancer cell line was incubated in FITC-bound annexin and propidium iodide (PI) for 15 minutes, and annexin and PI binding were then measured by flow cytometry to acquire data using a BD Accuri C6 flow cytometer (BD Biosciences) and analyzed with the ACCURI™ C6 analysis program (BD Biosciences)/FlowJo software (FlowJo, LLC.). Cancer cell line death was evaluated using a cleaved caspase-3 antibody (Cell Signaling Technology).

[8] = test system: sorafenib-resistant liver cancer cell line Huh7-SR; assay: as above; details: Huh7-SR cells; FIGS. 1A to 1C
Method: as §3

[9] = test system: sorafenib-resistant liver cancer cell line Huh7-R; assay: Cell proliferation, trypan blue cell count with hemocytometer; details: sorafenib alone, FIG. 4A

Compound: COc1cc(Nc2c(C#N)cnc3cc(OCCCN4CCN(C)CC4)c(OC)cc23)c(Cl)cc1Cl [bosutinib]
- inhibition at 12.5 µM [1]: 16.3%

Compound: Cc1cc(Nc2ncc(Cl)c(Nc3ccccc3S(=O)(=O)C(C)C)n2)c(OC(C)C)cc1C1CCNCC1 [ceritinib]
- inhibition at 2.5 µM [2]: 17%

Compound: COc1cc2nccc(Oc3ccc(NC(=O)NC4CC4)c(Cl)c3)c2cc1C(N)=O [lenvatinib]
- inhibition at 1.3 µM [3]: 16.7%
- inhibition at 15 µM [4]: 16.7%

Compound: N#CC[C@H](C1CCCC1)n1cc(-c2ncnc3[nH]ccc23)cn1 [ruxolitinib]
- inhibition at 30 µM [5]: 8.8%

Compound: CNC(=O)c1cc(Oc2ccc(NC(=O)Nc3ccc(Cl)c(C(F)(F)F)c3)cc2)ccn1 [sorafenib]
- cell proliferation [6]: not affected
- cell death by sorafenib [7]: did not increase
- cell death by sorafenib [8]: did not increase
- cell proliferation [9]: not affected
